Source: patent publication US20130064907A1, “COMBINATIONS OF ANTIFUNGAL COMPOUNDS AND TEA TREE OIL” (priority 2010, published 2013)

Tests used:
Assay type in all cases: in vivo
pepper powdery mildew [1] = assay: Pepper Powdery Mildew - Site 1, foliar sprays; conditions: 14 days from third application; TG 0.3%, Triadimenol 75 cc/dunam, Azoxystronin 50 cc/dunam, Trifloxystrobin 20 cc/dunam, alone or combined with TG
Protocol: (§1) Various combinations of TTO (supplied as Timorex Gold®) and synthetic fungicidal compositions (supplied as commercial products to be diluted by the end user prior to use) were tested against tomato powdery mildew and pepper powdery mildew. Open field or greenhouse-grown plants of the crops studied were drip irrigated and fertilized according to known recommendations for each crop. Treatments were applied in a randomized complete block, with 5 replications per treatment. Plot size in each instance was of 5-10 m length, containing 6-20 plants, depending on the crop. Fungicidal treatment was applied using backpack sprayer equipped with a mist blower (STHIL 340) to spray a volume of 600 liter/ha, depending on the crop. From three to eight foliar sprays were applied at 7-14 day intervals, depending on the crop. Disease severity was evaluated by determining the leaf area covered with powdery mildew (disease severity) on each of 20 leaves randomly selected per each replicate. […] To analyze the results, an arc-sin transformation was performed on the raw data, and analysis of variance (ANOVA) using the SAS GLM procedure was applied to the transformed data. The Tukey-Kramer Test was applied to determine whether differences between treatments were significant. In the tables, “a”, “b” and “c”, refer to differences in statistical analysis that are familiar to users of the Tukey-Kramer test; “SF” is the “synergy” factor, calculated using the Abbott formula (SF=observed efficacy (Eobs)/expected efficacy (Eexp), where Eexp=α+β−[…], where α and β denote the levels of control afforded by materials α and β, respectively, alone; see e.g. Levy et al., EPPO Bull. 16, 651-657 (1986)).

pepper powdery mildew [2] = assay: Pepper Powdery Mildew - Site 2, foliar sprays; conditions: 15 days from ninth application; TG 0.3%, Trifloxystrobin 20 gr/dunam, Myclobutanil 60 gr/dunam, alone or combined with TG
Protocol: Various combinations of TTO (supplied as Timorex Gold®) and synthetic fungicidal compositions (supplied as commercial products to be diluted by the end user prior to use) were tested against tomato powdery mildew and pepper powdery mildew. Open field or greenhouse-grown plants of the crops studied were drip irrigated and fertilized according to known recommendations for each crop. Treatments were applied in a randomized complete block, with 5 replications per treatment. Plot size in each instance was of 5-10 m length, containing 6-20 plants, depending on the crop. Fungicidal treatment was applied using backpack sprayer equipped with a mist blower (STHIL 340) to spray a volume of 600 liter/ha, depending on the crop. […] Disease severity was evaluated by determining the leaf area covered with powdery mildew (disease severity) on each of 20 leaves randomly selected per each replicate. […] To analyze the results, an arc-sin transformation was performed on the raw data, and analysis of variance (ANOVA) using the SAS GLM procedure was applied to the transformed data. The Tukey-Kramer Test was applied to determine whether differences between treatments were significant. In the tables, “a”, “b” and “c”, refer to differences in statistical analysis that are familiar to users of the Tukey-Kramer test; “SF” is the “synergy” factor, calculated using the Abbott formula (SF=observed efficacy (Eobs)/expected efficacy (Eexp), where Eexp=α+β−[…], where α and β denote the levels of control afforded by materials α and β, respectively, alone; see e.g. Levy et al., EPPO Bull. 16, 651-657 (1986)).

tomato powdery mildew = assay: Tomato Powdery Mildew - Site 1, foliar sprays; conditions: 12 days from fourth application; TG 0.3%, Azoxystrobin 50 cc/dunam, alone or combined
Protocol: as §1

Row | SMILES | Incidence: % leaves infected (pepper powdery mildew [1]) [%] | Incidence: Efficacy (%) (pepper powdery mildew [1]) | Severity: % infected leaf area (pepper powdery mildew [1]) [%] | Severity: Efficacy (%) (pepper powdery mildew [1]) | Incidence: % leaves infected (pepper powdery mildew [2]) [%] | Incidence: Efficacy (%) (pepper powdery mildew [2]) | Severity: % infected leaf area (pepper powdery mildew [2]) [%] | Severity: Efficacy (%) (pepper powdery mildew [2]) | Incidence: % leaves infected (tomato powdery mildew) [%] | Incidence: Efficacy (%) (tomato powdery mildew) | Severity: % infected leaf area (tomato powdery mildew) [%] | Severity: Efficacy (%) (tomato powdery mildew)
1 | CC(C)(C)C(O)C(Oc1ccc(Cl)cc1)n1cncn1 (stereo not drawn) [Triadimenol] | 48.7 | 41.8 | 8.4 | 65.6 |  |  |  |  |  |  |  | 
2 | CCCCC(C#N)(Cn1cncn1)c1ccc(Cl)cc1 (stereo not drawn) [Myclobutanil] |  |  |  |  | 2 | 96.9 | 0 | 100.0 |  |  |  | 
3 | CO/C=C(/C(=O)OC)c1ccccc1Oc1cc(Oc2ccccc2C#N)ncn1 [Azoxystrobin] | 22.5 | 73.1 | 2.9 | 88.1 |  |  |  |  | 45 | 55.0 | 5 | 91.7
4 | CON=C(C(=O)OC)c1ccccc1CON=C(C)c1cccc(C(F)(F)F)c1 [Trifloxystrobin] | 25 | 70.1 | 1.9 | 92.2 | 2 | 96.9 | 0.1 | 99.6 |  |  |  | 
